Reference: US12258423B2, “Stapled and stitched polypeptides and uses thereof” (President and Fellows of Harvard College, priority 2013, dated 2025)

Assay: Circular dichroism (CD) spectroscopy of peptide helicity
Conditions: unlabeled peptide, 10 mM sodium phosphate pH 7.0, FIG. 11D
Method: Circular Dichroism (CD) Spectroscopy: CD spectra (FIGS. 11A-11D) were obtained using unlabeled peptides in 10 mM sodium phosphate pH 7.0 buffer. The raw data has been converted to the concentration-independent unit of molar ellipticity. α-Helices typically show dual minima at approximately 208 nm and 222 nm and a maximum at approximately 192 nm.

With `CC(=O)N[C@H](C(=O)N[C@@H](CO)C(=O)N[C@@H](Cc1ccccc1)C(=O)N[C@]12CCN(C1)C(=O)OCCCCOC(=O)N1CC[C@@](C(N)=O)(C1)NC(=O)[C@H](CC(C)C)NC(=O)[C@H](CC(C)C)NC(=O)[C@H](C)NC(=O)[C@H](Cc1[nH]cc3ccccc13)NC(=O)[C@H](Cc1ccc(O)cc1)NC(=O)[C@H](CCC(=O)O)NC2=O)C(C)O` (single isomer, unassigned) [Ac-PM2 PyrR/PyrS Alloc-Stapled] the “α-helical character (CD spectrum)” value was “a-helical”.
